Results as given in patent US7371853.
Like-named read-outs stand apart in the source and are kept apart here.

Details: amide bond, BOP, DCM, 25.0 °C

Row | SMILES | ring closure, yield of all isomers (from COC(=O)[C@H](Cc1cccc(OCCN)c1)NC(=O)c1cc(C(=O)O)cc(N(C)S(C)(=O)=O)c1, 2.0 h, 2 steps) [%] | ring closure, yield of all isomers (from COC(=O)C(N)Cc1cccc(OC[C@@H](NC(=O)c2cc(C(=O)O)cc(N(C)S(C)(=O)=O)c2)c2ccccc2)c1, 1.76 mM, 72.0 h) [%]
1 | COC(=O)[C@@H]1Cc2cccc(c2)OCCNC(=O)c2cc(cc(N(C)S(C)(=O)=O)c2)C(=O)N1 | 30 | 
2 | COC(=O)C1Cc2cccc(c2)OC[C@H](c2ccccc2)NC(=O)c2cc(cc(N(C)S(C)(=O)=O)c2)C(=O)N1 (some centres unmarked) |  | 62
